Laboratory results reported in PMC12299847, “Macroalgae-Inspired Brominated Chalcones as Cosmetic Ingredients with the Potential to Target Skin Inflammaging” (Marine Drugs, 2025).

Assays:
[1] = test system: NO production in LPS-stimulated RAW 264.7 macrophages; assay: NO production (Griess assay) in LPS-stimulated macrophages; assay type: cell-based, murine; settings: Mus musculus, RAW264.7, 24 h, RAW 264.7, LPS 100 ng/mL, Griess
Experimental: The anti-inflammatory potential of chalcones 1–7 was evaluated in macrophages cultured in the presence or absence (control) of LPS, as depicted in Figure 4. Under basal conditions (unstimulated, control), macrophages produce low levels of nitrites (≈12%). […] Each chalcone was tested at concentrations previously established as non-cytotoxic in macrophages, trying to ensure that observed changes in NO levels were not due to reduced cell viability.
The production of NO was evaluated by measuring nitrite accumulation in culture supernatants using the previously described Griess assay. Cells were seeded at a concentration of 5.0 × 10^4 cells/mL in a 96-well plate (200 μL/well) and allowed to stabilize overnight at 37 °C. Afterwards, the cells were treated with different concentrations of compound solutions and pre-incubated for 1 h at 37 °C. Subsequently, an LPS in PBS solution was added to each well, achieving a final concentration of 100 ng/mL, and the plate was left to incubate for 24 h. An amount of 150 μL of the cell culture supernatant was then transferred to a fresh 96-well plate, and an equal amount of Griess reagent [comprising a 1:1 mixture of 1% (w/v) sulphanilamide in 5% (v/v) phosphoric acid and 0.1% (w/v) naphthylethylenediaminedihydrochloride] was added. Following a 30 min incubation at room temperature in the dark, the absorbance was recorded at 550 nm using a Biotek Synergy HT plate reader (Biotek, CA, USA). The nitrite concentration in the supernatants was determined by comparing the absorbance of each sample to a sodium nitrite standard curve. The results, obtained from at least three independent experiments performed in duplicate, were expressed as a percentage of NO production by cells versus chemical concentration, relative to LPS condition (100%).
Figure 4 NO production by macrophages treated with LPS (100 ng/mL) or not (control) in the presence of chalcones 1–7. Results are expressed as a percentage of NO production by cells treated with LPS (100 ng/mL). Each value represents the mean ± SEM of four independent experiments in duplicate. Statistical analysis: one ANOVA with Dunnett’s multiple comparisons test, where p< 0.05 was considered significant. *** p < 0.005, relative to the control, and ^# p < 0.05, ^## p < 0.01, ^### p < 0.0005, and ^#### p < 0.0001, relative to LPS condition.

Nrf2 = assay: KeratinoSens assay, Nrf2 luciferase reporter; assay type: cell-based, human; settings: 24 h, compared to vehicle (DMSO)
Experimental: The KeratinoSens™ assay was originally developed to assess the skin sensitization potential of Nrf2 activation, but it has also been utilized to evaluate the ability of natural compounds to induce this transcription factor [46, 47]. In this study, we assessed the capacity of chalcones 1 and 2 to activate Nrf2 after 24 and 48 h (Figure 8A–F).
(§1) Selected compounds (chalcones 1 and 2), and the positive control, DMF, were dissolved in sterile DMSO. Intermediate dilutions were prepared in culture medium, including the final concentration to be added to the 96-well plate, with a final volume of 200 µL per well. The KeratinoSens™ assay was conducted as previously described. In brief, cells were seeded at a density of 10,000 cells per well in 96-well white opaque plates (Greiner Bio-One GmbH, cat. no. 655083, Kremsmünster, Austria) and incubated for 24 h. The medium was then replaced with fresh medium containing 1% FBS and the test compounds, and cells were incubated for an additional 24 and 48 h. DMF was used as the positive control since it is a known Nrf2 activator. Cell viability was assessed in the same cells using resazurin. After 20 or 44 h of exposure to the test compounds, 50 µM of resazurin solution (in sterile PBS) was added to each well, and the plates were incubated for 4 h at 37 °C, 5% CO2 Following the resazurin incubation, the supernatant was transferred to a transparent 96-well plate, and absorbance was measured at 570 and 620 nm using a Synergy HT multi-mode microplate reader (BioTek, Bad Friedrichshall, Germany). To measure luciferase activity, cells in the white opaque 96-well plates were washed with 1× PBS. An equal volume of 1× PBS and lysis buffer (One-GLO Luciferase, cat. no. E6130, Promega, Madison, WI, USA) was added to the wells, and the plates were incubated for 20 min at room temperature. Luminescence was then measured using a FLUOstar OMEGA Microplate Reader (BMG Labtech GmbH, Ortenberg, Germany).
Figure 8 Nrf2 activation using the KeratinoSens™ assay in HaCaT cells transfected with an Nrf2 luciferase reporter construct, incubated for 24 h (A–C) or 48 h (D–F) with chalcones 1 and 2. DMF was used as a positive control. Data represent the results from four independent experiments. Non-linear regression analysis was performed using GraphPad Prism v.9.0.0 for Windows. The blue line represents the results of cell viability (% regarding the control) and the green line represents fold induction. Statistical analysis: one ANOVA with Dunnett’s multiple comparisons test, where significance includes. * p < 0.05, ** p < 0.01, *** p < 0.0005, and **** p < 0.0001.

[2] = test system: HaCaT cells transfected with an Nrf2 luciferase reporter construct; assay: Cell viability (resazurin) in KeratinoSens cells; assay type: cell-based, human
Experimental: as §1, with “Germany). […]” for “Germany). To measure luciferase activity, cells in the white opaque 96-well plates were washed with 1× PBS. An equal volume of 1× PBS and lysis buffer (One-GLO Luciferase, cat. no. E6130, Promega, Madison, WI, USA) was added to the wells, and the plates were incubated for 20 min at room temperature.”, “Germany). […]” for “Germany).”

COc1cc(Br)c(/C=C/C(=O)c2cc(OC)c(OC)cc2Br)cc1OC [Chalcone 1]
IC50 [1]: 0.58 ± 0.12 µM
Nrf2 mean fold induction (Nrf2; 7.5 µM): 3.49 fold
fold induction at 5 µM (Nrf2; Homo sapiens, 5 µM): 3.18
fold induction at 7.5 µM (Nrf2; Homo sapiens, 7.5 µM): ~3.5
effect on cell viability ([2]; 24 h, 5 µM and 7.5 µM): without affecting cell viability
effect on cell viability ([2]; 48 h): decrease in cell viability
